Measured values reported in patent US6376209B2, “Increasing the FVII sensitivity of a thromboplastin reagent” (Dade Behring Marburg GmbH, priority 1997, dated 2002).

Key:
Assay type in all cases: biochemical
Standard human plasma [1] = assay: Quick's thromboplastin time (PT), Schnitger & Gross; details: for Coagulation time 100%: 0.75 sec, incubated 37° C., 90 min; for Coagulation time, Sample: 100%: ascorbic acid 1 mM, stabilization after 6 h (iron: after 1 h)
Experimental: (§1) Quick's thromboplastin time (PT) was then determined using a Schnitger & Gross as follows:
(§2) Heat reagents and tubes to 37° C.;
(§3) Introduce […] of control plasma N or FVII-deficient plasma into the tubes;
(§4) Incubate for 1 min in the thermoblock;
(§5) Add 200 μl of thromboplastin and at the same time start the measuring operation; shake the tube briefly and place it in the measuring position of the Schnitger & Gross, and insert the electrode holder up to the limit stop;
(§6) Read off the coagulation time.
(§7) Quick's thromboplastin time (PT) is then determined using a Schnitger & Gross as follows:
(§8) Introduce 100 μl of plasma into the tubes;
(§9) Add 200 μl of thromboplastin and at the same time start the measuring operation;
(§10) shake the tube briefly, place it in the measuring position of the Schnitger & Gross, and insert the electrode holder up to the limit stop;

FVII-deficient plasma [2] = assay: as above; design: Coagulation time, Sample: FVII: unit not given beside the values; details: for Coagulation time FVII-MF / FVII-sens. FVII-MP/100%: 0.75 sec, incubated 37° C., 90 min; for Coagulation time, Sample: FVII / FVII sens.: FVII/100%: ascorbic acid 1 mM, Fe(II)SO4 or CuCl 0.01 mM, stabilization after 6 h (iron: after 1 h)
Experimental: as §1, §2, §3, §4, §5, §6, §7, §8, §9, §10

FVII-deficient plasma [3] = assay: PT, Behring Coagulation Timer (PT.sec Thromborel S); details: 0.75 sec, incubated 37° C., 90 min
Experimental: (§11) Thromborel S Bulkware according to Example 8a) was short-time heated at a temperature of 120° C. using a dwell time of 0.75 sec and then adjusted to pH 7.5 with 0.16 mM sodium carbonate; different concentrations of chloramine T were subsequently added and the mixtures were incubated at 37° C. for 90 min. Stabilizers and 6 mM acetylcysteine were added to the solution. The pH value was adjusted to 6.5 and the coagulation time was determined using a Behring Coagulation Timer (PT.sec Thromborel S).
(§12) Standard human plasma, the control plasma Patho II and an FVII-deficient plasma were used as samples. The spread was calculated from the ratio of the coagulation times of the Patho II and the StHPl, and the FVII sensitivity was calculated from the ratio of the coagulation times for the FVII-MP and the STHPL.

Standard human plasma [4] = assay: as above; details: 0.75 sec, incubated 37° C., 90 min
Experimental: as §11, §12

control plasma Patho II [5] = assay: as above; details: 0.75 sec, incubated 37° C., 90 min
Experimental: The coagulation time was determined using a Behring Coagulation Timer (PT.sec Thromborel S). Standard human plasma, the. control plasma Patho II (Behringwerke AG) and an FVII-deficient plasma were employed as samples. The spread was calculated from the ratio of the coagulation times of the Patho II and the StHPl, and the FVII sensitivity was calculated from the ratio of the coagulation times for FVII-MP and STHPL.
The coagulation time was determined using a Behring Coagulation Timer (PT.sec Thromborel S). Standard human plasma, the control plasma Patho II and an FVII-deficient plasma were employed as samples. The spread as calculated from the ratio of the coagulation times of the Patho II and the StHPl, and the FVII sensitivity was calculated from the ratio of the coagulation times for FVII-MP and STHPL.
as §11, §12

control plasma Patho II [6] = assay: Quick's thromboplastin time (PT), Schnitger & Gross; details: ascorbic acid 1 mM, Fe(II)SO4 or CuCl 0.01 mM, stabilization after 6 h (iron: after 1 h)
Experimental: as §7, §2, §8, §4, §9, §10, §6
The spread was calculated from the ratio of the coagulation times for the dilution of the StHPl and the StHPl, and the FVII sensitivity was calculated from the ratio of the coagulation times for FVII-MP and STHPL.
Standard human plasma, the control plasma Patho II and an FVII-deficient plasma were used as samples. The reagents were stored at 4° C. and 37° C. and the coagulation time was repeated after 7 and 14 days. The spread was calculated from the ratio of the coagulation times of the Patho II and the StHPl, and the FVII sensitivity was calculated from the ratio of the coagulation times for FVII-MP and the STHPL.

[7] = 0.00003% added to Thromborel S heated 120° C.
[8] = 0.0003% added to Thromborel S heated 120° C.
[9] = 0.003% added to Thromborel S heated 120° C.
[10] = 0.03% added to Thromborel S heated 120° C.
[11] = 0.3% added to Thromborel S heated 120° C.
[12] = 0.001 mM added to Thromborel S heated 120° C.
[13] = 0.01 mM added to Thromborel S heated 120° C.
[14] = 0.1 mM added to Thromborel S heated 120° C.

For OO [H2O2], the “Coagulation time 100%” value (Standard human plasma [1]; [7]) was 11.9 s, the “Coagulation time 100%” value (Standard human plasma [1]; [8]) was 11.7 s and the “Coagulation time 100%” value (Standard human plasma [1]; [9]) was 11.4 s. The “Coagulation time 100%” value (Standard human plasma [1]; [10]) was 11.5 s, the “Coagulation time 100%” value (Standard human plasma [1]; [11]) was 15 s and the “Coagulation time FVII-MF” value (FVII-deficient plasma [2]; [7]) was 132 s. For the same compound, the “FVII-sens. FVII-MP/100%” value (FVII-deficient plasma [2]; [7]) was 11.1, the “Coagulation time FVII-MF” value (FVII-deficient plasma [2]; [8]) was 133 s and the “FVII-sens. FVII-MP/100%” value (FVII-deficient plasma [2]; [8]) was 11.4. For the same compound, the “Coagulation time FVII-MF” value (FVII-deficient plasma [2]; [9]) was 139 s, the “FVII-sens. FVII-MP/100%” value (FVII-deficient plasma [2]; [9]) was 12.2 and the “Coagulation time FVII-MF” value (FVII-deficient plasma [2]; [10]) was 143 s. For the same compound, the “FVII-sens. FVII-MP/100%” value (FVII-deficient plasma [2]; [10]) was 12.4, the “Coagulation time FVII-MF” value (FVII-deficient plasma [2]; [11]) was 156 s and the “FVII-sens. FVII-MP/100%” value (FVII-deficient plasma [2]; [11]) was 10.4.
In the case of Cc1ccc(S(=O)(=O)[N-]Cl)cc1.[Na+] [chloramine T], the “Coagulation time FV-MP” value (FVII-deficient plasma [3]; [12]) is reported as 140.1 s, the “FVII-sens. FVII-MP/100%” value (FVII-deficient plasma [3]; [12]) is reported as 12.2 and the “Coagulation time FV-MP” value (FVII-deficient plasma [3]; [13]) is reported as 141.6 s. The “FVII-sens. FVII-MP/100%” value (FVII-deficient plasma [3]; [13]) was 12.1, the “Coagulation time FV-MP” value (FVII-deficient plasma [3]; [14]) was 177.4 s and the “FVII-sens. FVII-MP/100%” value (FVII-deficient plasma [3]; [14]) was 13.6. The “Coagulation time 100%” value (Standard human plasma [4]; [12]) was 11.5 s, the “Coagulation time 100%” value (Standard human plasma [4]; [13]) was 11.7 s and the “Coagulation time 100%” value (Standard human plasma [4]; [14]) was 13 s. The “Coagulation time Patho II” value (control plasma Patho II [5]; [12]) was 34.2 s, the “Spread Patho II/100%” value (control plasma Patho II [5]; [12]) was 3.0 and the “Coagulation time Patho II” value (control plasma Patho II [5]; [13]) was 34.7 s. The “Spread Patho II/100%” value (control plasma Patho II [5]; [13]) was 3.0, the “Coagulation time Patho II” value (control plasma Patho II [5]; [14]) was 38.2 s and the “Spread Patho II/100%” value (control plasma Patho II [5]; [14]) was 2.9.
For O=C1O[C@H]([C@@H](O)CO)C(O)=C1O [ascorbic acid], the “Coagulation time, Sample: 100%” value (Standard human plasma [1]; reagent stored 18 h/4° C., Fe(II)SO4 or CuCl 0.01 mM in Thromborel S heated 85° C., 3 sec) was 13.7, the “Coagulation time, Sample: 100%” value (Standard human plasma [1]; reagent stored 7 days 4° C., Fe(II)SO4 or CuCl 0.01 mM) was 14 and the “Coagulation time, Sample: 100%” value (Standard human plasma [1]; reagent stored 7 days 37° C., Fe(II)SO4 or CuCl 0.01 mM) was 14.7. For the same compound, the “Coagulation time, Sample: 100%” value (Standard human plasma [1]; reagent stored 14 days 4° C., Fe(II)SO4 or CuCl 0.01 mM) was 14.1, the “Coagulation time, Sample: 100%” value (Standard human plasma [1]; reagent stored 14 days 37° C., Fe(II)SO4 or CuCl 0.01 mM) was 15.3 and the “Coagulation time, Sample: Patho II” value (control plasma Patho II [6]; reagent stored 18 h/4° C.) was 51.4. The “Spread: Patho II/100%” value (control plasma Patho II [6]; reagent stored 18 h/4° C.) was 3.8, the “Coagulation time, Sample: Patho II” value (control plasma Patho II [6]; reagent stored 7 days 4° C.) was 51.3 and the “Spread: Patho II/100%” value (control plasma Patho II [6]; reagent stored 7 days 4° C.) was 3.7. The “Coagulation time, Sample: Patho II” value (control plasma Patho II [6]; reagent stored 7 days 37° C.) was 51.5, the “Spread: Patho II/100%” value (control plasma Patho II [6]; reagent stored 7 days 37° C.) was 3.5 and the “Coagulation time, Sample: Patho II” value (control plasma Patho II [6]; reagent stored 14 days 4° C.) was 51.1. For the same compound, the “Coagulation time, Sample: Patho II” value (control plasma Patho II [6]; reagent stored 14 days 37° C.) was 53.1, the “Coagulation time, Sample: FVII” value (FVII-deficient plasma [2]; reagent stored 18 h/4° C.) was 157.7 and the “FVII sens.: FVII/100%” value (FVII-deficient plasma [2]; reagent stored 18 h/4° C.) was 11.5. For the same compound, the “Coagulation time, Sample: FVII” value (FVII-deficient plasma [2]; reagent stored 7 days 4° C.) was 154.3, the “FVII sens.: FVII/100%” value (FVII-deficient plasma [2]; reagent stored 7 days 4° C.) was 11.0 and the “Coagulation time, Sample: FVII” value (FVII-deficient plasma [2]; reagent stored 7 days 37° C.) was 181.1. For the same compound, the “FVII sens.: FVII/100%” value (FVII-deficient plasma [2]; reagent stored 7 days 37° C.) was 12.3, the “Coagulation time, Sample: FVII” value (FVII-deficient plasma [2]; reagent stored 14 days 4° C.) was 161.6 and the “FVII sens.: FVII/100%” value (FVII-deficient plasma [2]; reagent stored 14 days 4° C.) was 11.5. For the same compound, the “Coagulation time, Sample: FVII” value (FVII-deficient plasma [2]; reagent stored 14 days 37° C.) was 195.8 and the “FVII sens.: FVII/100%” value (FVII-deficient plasma [2]; reagent stored 14 days 37° C.) was 12.8.
